In brackets after ≈: the same amount, converted by molar mass. Activity calls are given as the source filed them. The calls are words filed in the database; no cut-off is given here.
Key:
[Candida] auris [1] = Antifungal activity against Candida auris ATCC 15448 assessed as reduction in fungal growth; type: functional; settings: Candidozyma auris
[Candida] auris [2] = Antifungal activity against Candida auris 0029 assessed as reduction in fungal growth; type: functional; settings: Candidozyma auris
Cryptococcus neoformans [3] = assay: Antifungal activity against Cryptococcus neoformans H99 assessed as reduction in fungal growth; type: functional
Cryptococcus neoformans [4] = assay: Antifungal activity against Cryptococcus neoformans H99 assessed as reduction in fungal growth incubated for 72 hrs in presence of 10 uM Fe2+; type: functional
Cryptococcus neoformans [5] = assay: Effect on sterol composition in Cryptococcus neoformans H99 assessed as lanosterol content at 1 microg/ml measured after 24 hrs by GC-MS analysis; type: functional; settings: dose 1 µg/ml
Cryptococcus neoformans [6] = assay: Effect on sterol composition in Cryptococcus neoformans H99 assessed as eburicol content at 1 microg/ml measured after 24 hrs by GC-MS analysis; type: functional; settings: dose 1 µg/ml
Cryptococcus neoformans [7] = assay: Antifungal activity against Cryptococcus neoformans H99 assessed as reduction in fungal growth incubated for 72 hrs in presence of 80 uM Fe2+; type: functional
Cryptococcus neoformans [8] = assay: Antifungal activity against Cryptococcus neoformans H99 assessed as reduction in fungal growth incubated for 72 hrs in presence of 5 uM Fe2+; type: functional
[Candida] auris [9] = Effect on sterol composition in Candida auris 0029 assessed as ergosterol content at 1 microg/ml measured after 24 hrs by GC-MS analysis (reference value: 100 %); type: functional, Candidozyma auris; settings: dose 1 µg/ml
[Candida] auris [10] = Antifungal activity against Candida auris 0029 assessed as inhibition of cell growth at 16 microg/ml measured for 72 hrs; type: functional; settings: Candidozyma auris, dose 16.0 µg/ml
Cryptococcus neoformans [11] = assay: Effect on sterol composition in Cryptococcus neoformans H99 assessed as ergosterol content at 1 microg/ml measured after 24 hrs by GC-MS analysis (reference value: 58.53%); type: functional; settings: dose 1 µg/ml
Cryptococcus neoformans [12] = assay: Antifungal activity against Cryptococcus neoformans H99 assessed as reduction in fungal growth incubated for 72 hrs in presence of 1 uM Fe2+; type: functional
[Candida] auris [13] = Antibiofilm activity against Candida auris 0029 assessed as inhibition of biofilm formation at 64 microg/ml incubated for 24 hrs by XTT reduction assay; type: functional; settings: Candidozyma auris, dose 64.0 µg/ml
Cryptococcus neoformans [14] = assay: Antifungal activity against Cryptococcus neoformans H99 assessed as reduction in fungal growth incubated for 72 hrs in presence of 20 uM Fe2+; type: functional
Cryptococcus neoformans [15] = assay: Effect on sterol composition in Cryptococcus neoformans H99 assessed as other sterols content at 1 microg/ml measured after 24 hrs by GC-MS analysis (reference value: 41.47%); type: functional; settings: dose 1 µg/ml
Cryptococcus neoformans [16] = assay: Fungicidal activity against Cryptococcus neoformans H99; type: functional
Cryptococcus neoformans [17] = assay: Antibiofilm activity against Cryptococcus neoformans H99 assessed as inhibition of capsule formation at 4 microg/ml incubated for 48 hrs by laser confocal microscopic analysis; type: functional, organism-based; settings: dose 4.0 µg/ml
Cryptococcus neoformans [18] = assay: Antifungal activity against Cryptococcus neoformans H99 assessed as inhibition of cell growth at 16 microg/ml measured for 72 hrs; type: functional, organism-based; settings: dose 16.0 µg/ml
Cryptococcus neoformans [19] = assay: Antifungal activity against Cryptococcus neoformans H99 assessed as reduction in fungal growth incubated for 72 hrs in presence of 40 uM Fe2+; type: functional
[Candida] auris [20] = Fungicidal activity against Candida auris 0029; type: functional; settings: Candidozyma auris

With `Clc1ccc(N/N=C(\c2ccccc2)c2ccccn2)cc1` the MIC80 ([Candida] auris [1]) was over 64 µg/mL, the MIC80 ([Candida] auris [2]) was over 64 µg/mL and the MIC80 (Cryptococcus neoformans [3]) was 32 µg/mL (≈ 104 µM).
`Clc1ccc(N/N=C(/c2ccc(Cl)cc2)c2ccccn2)cc1` was tested, and the MIC80 ([Candida] auris [1]) was 64 µg/mL (≈ 187 µM), the MIC80 ([Candida] auris [2]) was 64 µg/mL (≈ 187 µM) and the MIC80 (Cryptococcus neoformans [3]) was 32 µg/mL (≈ 93.5 µM).
`Clc1ccc(/C(=N\Nc2ccc(Cl)cn2)c2ccccn2)cc1` was tested, and the MIC80 ([Candida] auris [1]) was 1 µg/mL (≈ 2.91 µM), the MIC80 ([Candida] auris [2]) was 2 µg/mL (≈ 5.83 µM) and the MIC80 (Cryptococcus neoformans [3]) was 0.5 µg/mL (≈ 1.46 µM).
Work on `OC(Cn1cncn1)(Cn1cncn1)c1ccc(F)cc1F` [FLUCONAZOLE] yielded an MIC (Cryptococcus neoformans [4]) of 4 µg/mL, an Activity (Cryptococcus neoformans [5]) of 4.24% and an MIC80 ([Candida] auris [1]) of 16 µg/mL (≈ 52.2 µM). The Activity (Cryptococcus neoformans [6]) was 48.28%, the MIC80 ([Candida] auris [2]) was over 64 µg/mL and the MIC (Cryptococcus neoformans [7]) was 4 µg/mL. For the same molecule, the MIC (Cryptococcus neoformans [8]) was 2 µg/mL, the Activity ([Candida] auris [9]) was 100% and the Activity ([Candida] auris [10]) was “inactive”. The Activity (Cryptococcus neoformans [11]) was 42.51%, the MIC (Cryptococcus neoformans [12]) was 2 µg/mL and the Activity ([Candida] auris [13]) was “inactive”. For the same molecule, the MIC (Cryptococcus neoformans [14]) was 4 µg/mL, the Activity (Cryptococcus neoformans [15]) was 4.97% and the MIC80 (Cryptococcus neoformans [3]) was 2 µg/mL (≈ 6.53 µM). For the same molecule, the Activity (Cryptococcus neoformans [16]) was “inactive”, the Activity (Cryptococcus neoformans [17]) was “inactive” and the Activity (Cryptococcus neoformans [18]) was “Active”. For the same molecule, the MIC (Cryptococcus neoformans [19]) was 4 µg/mL and the Activity ([Candida] auris [20]) was “inactive”.
For `COc1ccc(N/N=C(\c2ccccc2)c2ccccn2)nc1`, the MIC80 ([Candida] auris [1]) was 0.125 µg/mL (≈ 0.411 µM), the MIC80 ([Candida] auris [2]) was 2 µg/mL (≈ 6.57 µM) and the MIC80 (Cryptococcus neoformans [3]) was 0.5 µg/mL (≈ 1.64 µM).
`Cc1ccnc(-n2c(=O)n(-c3ccccn3)c3ccccc32)c1` showed an MIC80 ([Candida] auris [1]) of over 64 µg/mL, an MIC80 ([Candida] auris [2]) of over 64 µg/mL and an MIC80 (Cryptococcus neoformans [3]) of 64 µg/mL (≈ 212 µM).
Molecule `FC(F)(F)c1ccc(N/N=C(\c2ccccc2)c2ccccn2)cc1` has an MIC80 ([Candida] auris [1]) of over 64 µg/mL, an MIC80 ([Candida] auris [2]) of over 64 µg/mL and an MIC80 (Cryptococcus neoformans [3]) of 32 µg/mL (≈ 93.7 µM).
Work on `Cc1ccc(NC(=O)C(c2ccccc2)c2ccccn2)nc1` (configuration not stated) yielded an MIC80 ([Candida] auris [1]) of 64 µg/mL (≈ 211 µM), an MIC80 ([Candida] auris [2]) of over 64 µg/mL and an MIC80 (Cryptococcus neoformans [3]) of 32 µg/mL (≈ 105 µM).
Work on `Fc1ccc(N/N=C(\c2ccccc2)c2ccccn2)cc1` yielded an MIC80 ([Candida] auris [1]) of 8 µg/mL (≈ 27.5 µM), an MIC80 ([Candida] auris [2]) of 32 µg/mL (≈ 110 µM) and an MIC80 (Cryptococcus neoformans [3]) of 32 µg/mL (≈ 110 µM).
With `O=c1c2ccccc2c(-c2ccccn2)nn1-c1ccc(Cl)cn1` the MIC80 ([Candida] auris [1]) was over 64 µg/mL, the MIC80 ([Candida] auris [2]) was over 64 µg/mL and the MIC80 (Cryptococcus neoformans [3]) was 64 µg/mL (≈ 191 µM).

Source: ChEMBL document CHEMBL6087415, “Discovery of new fungal jumonji H3K27 demethylase inhibitors for the treatment of Cryptococcus neoformans and Candida auris infections” (Eur J Med Chem, 2025)
